Source: patent US11584755B2 (IDEAYA BIOSCIENCES, INC., priority 2017, dated 2023)

Experiments:
Type in all cases: biochemical
hEXO1, Isoform1 = hEXO1, Isoform1 (Homo sapiens (Human), UniProt Q9UQ84); test: Enzymatic IC50 assay, FAM-labeled DNA oligomer substrate, fluorescence intensity (EXO1); settings: hEXO1 6 nM, substrate 30 nM, reaction time 60 minutes, 23° C.
Method in brief: (§1)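 FEN1, EXO1 or XPG was preincubated 15 min with compound, then the FAM-labelled DNA oligomer substrate was added in Tris-HCl pH 8.0 with 10 mM MgCl2 at 23° C. FEN1 was 70 pM with 100 nM substrate for 20 min, EXO1 6 nM with 30 nM for 60 min, and XPG 100 nM with 100 nM for 120 min. Reactions were EDTA-stopped and read by fluorescence intensity.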

hXPG = hXPG (Homo sapiens (Human), UniProt P28715); test: Enzymatic IC50 assay, FAM-labeled DNA oligomer substrate, fluorescence intensity (XPG); settings: hXPG 100 nM, substrate 100 nM, reaction time 120 minutes, 23° C.
Protocol: FEN1, EXO1 or XPG enzyme was incubated with compound or vehicle (DMSO) and the FAM-labeled DNA oligomer substrate in a microtiter plate. The stop buffer contains EDTA to stop the enzymatic reaction. The plate is read for fluorescence intensity. The high control (DMSO) with high fluorescence intensity represents no inhibition of enzymatic reaction while the low control (10 μM) with low fluorescence intensity represents full inhibition of enzymatic reaction.
• FEN1 • hFEN1: 70 pM • Substrate: 100 nM • Reaction time: 20 minutes • EXO1 • hEXO1: 6 nM, Isoforml • Substrate: 30 nM • Reaction time: 60 minutes • XPG • hXPG: 100 nM • Substrate: 100 nM • Reaction time: 120 minutes
Annealing Buffer: 50 mM Tris-HCl, 50 mM NaCl, 1 mM DTT Assay buffer: 50 mM Tris-HCl pH 8.0, 10 mM MgCl2, 0.01% BSA, 1 mM DTT Stop buffer: 50 mM EDTA in assay buffer Temperature: 23° C. Total volume: 40 μl Controls: • 0% inhibition control: DMSO • 100% inhibition control: 10 μM (final) 5-chloro-3-hydroxy-1,3-dihydroquinazoline-2,4-dione Enzyme Reaction and Detection: • 1. Prepare 25 μM intermediate stock of the substrate by diluting SEQ ID NO:1, SEQ ID NO:2, and SEQ ID NO:3 in annealing buffer, in a PCR tube. • 2. Place the PCR tube on a heat block, heat at 95° C. for 3 minutes, then drop in 0.2° C. increments over 2 minutes, stopping at 25° C. • 3. Remove the tube and let the tube cool at room temperature. • 4. Transfer 10 μL of 3× final concentration test compounds or DMSO to the appropriate wells of a microtiter plate. • 5. Transfer 10 μL of 3× final concentration enzyme in assay buffer or assay buffer alone to the appropriate wells. • 6. Incubate the plate at room temperature for 15 minutes. • 7. Transfer 10 μL of 3× substrate in assay buffer to all the test wells. • 8. Incubate the plate at room temperature for prescribed reaction time. • 9. Centrifuge the plate at 1000 rpm for 1 minute. • 10. Transfer 10 μL of stop buffer to all the test wells. • 11. Centrifuge the plate at 1000 rpm for 1 minute. • 12. Read the plate on a plate reader.

hFEN1 = hFEN1 (Homo sapiens (Human), UniProt P39748); test: Enzymatic IC50 assay, FAM-labeled DNA oligomer substrate, fluorescence intensity (FEN1); settings: hFEN1 70 pM, substrate 100 nM, reaction time 20 minutes, 23° C.
Method in brief: as §1

Sequence of hEXO1, Isoform1 (Q9UQ84 whole entry, canonical isoform): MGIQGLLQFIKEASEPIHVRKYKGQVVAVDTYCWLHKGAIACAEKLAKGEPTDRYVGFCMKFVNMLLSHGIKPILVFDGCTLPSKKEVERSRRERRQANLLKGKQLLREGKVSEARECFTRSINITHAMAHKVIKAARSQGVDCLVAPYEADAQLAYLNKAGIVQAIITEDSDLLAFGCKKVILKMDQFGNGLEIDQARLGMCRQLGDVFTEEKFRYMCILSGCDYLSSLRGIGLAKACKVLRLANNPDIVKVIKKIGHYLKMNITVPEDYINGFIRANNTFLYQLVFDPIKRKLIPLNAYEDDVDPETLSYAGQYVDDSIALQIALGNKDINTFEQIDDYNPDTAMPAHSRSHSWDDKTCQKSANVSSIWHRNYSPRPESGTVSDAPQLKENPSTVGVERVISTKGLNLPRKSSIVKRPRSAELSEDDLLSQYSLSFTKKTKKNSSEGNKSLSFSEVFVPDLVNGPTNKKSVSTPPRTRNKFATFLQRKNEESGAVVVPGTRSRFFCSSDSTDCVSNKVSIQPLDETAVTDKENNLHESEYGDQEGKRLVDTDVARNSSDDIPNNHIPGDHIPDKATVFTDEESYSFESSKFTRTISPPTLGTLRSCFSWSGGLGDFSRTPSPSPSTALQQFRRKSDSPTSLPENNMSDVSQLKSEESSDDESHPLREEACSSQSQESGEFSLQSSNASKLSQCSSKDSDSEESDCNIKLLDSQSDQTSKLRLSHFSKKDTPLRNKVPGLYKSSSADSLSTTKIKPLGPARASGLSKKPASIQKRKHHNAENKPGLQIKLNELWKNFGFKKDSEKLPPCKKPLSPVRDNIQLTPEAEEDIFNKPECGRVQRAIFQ
Sequence of hXPG (P28715 whole entry): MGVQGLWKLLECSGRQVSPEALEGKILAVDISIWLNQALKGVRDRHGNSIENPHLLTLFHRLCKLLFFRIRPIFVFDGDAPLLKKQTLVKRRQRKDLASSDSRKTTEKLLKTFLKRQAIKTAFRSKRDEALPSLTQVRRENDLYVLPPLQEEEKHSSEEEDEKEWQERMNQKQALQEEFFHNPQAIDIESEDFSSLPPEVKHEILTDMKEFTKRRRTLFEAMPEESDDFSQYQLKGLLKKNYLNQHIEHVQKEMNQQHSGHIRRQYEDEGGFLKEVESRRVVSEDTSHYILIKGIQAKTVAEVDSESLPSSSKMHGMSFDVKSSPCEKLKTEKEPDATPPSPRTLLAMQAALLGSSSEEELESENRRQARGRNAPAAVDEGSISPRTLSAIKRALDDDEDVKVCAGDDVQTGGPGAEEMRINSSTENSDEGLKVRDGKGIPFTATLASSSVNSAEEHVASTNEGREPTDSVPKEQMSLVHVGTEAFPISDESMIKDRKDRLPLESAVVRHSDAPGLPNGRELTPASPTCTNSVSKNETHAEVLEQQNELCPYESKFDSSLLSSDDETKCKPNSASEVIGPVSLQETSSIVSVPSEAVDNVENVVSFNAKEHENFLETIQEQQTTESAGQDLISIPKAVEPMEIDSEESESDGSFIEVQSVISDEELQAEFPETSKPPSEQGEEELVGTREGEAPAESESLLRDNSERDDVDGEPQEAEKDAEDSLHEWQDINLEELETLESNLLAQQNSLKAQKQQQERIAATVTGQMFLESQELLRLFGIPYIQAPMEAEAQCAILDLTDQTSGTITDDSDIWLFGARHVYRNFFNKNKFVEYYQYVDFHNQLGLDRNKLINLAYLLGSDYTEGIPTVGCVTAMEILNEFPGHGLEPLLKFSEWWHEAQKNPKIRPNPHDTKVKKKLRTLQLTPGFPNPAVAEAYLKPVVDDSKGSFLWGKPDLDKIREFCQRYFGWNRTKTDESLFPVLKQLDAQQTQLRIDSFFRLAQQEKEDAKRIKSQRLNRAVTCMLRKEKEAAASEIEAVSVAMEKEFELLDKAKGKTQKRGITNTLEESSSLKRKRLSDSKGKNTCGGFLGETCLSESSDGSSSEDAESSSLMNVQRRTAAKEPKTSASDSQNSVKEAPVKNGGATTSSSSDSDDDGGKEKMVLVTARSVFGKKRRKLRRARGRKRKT
Sequence of hFEN1 (P39748 whole entry): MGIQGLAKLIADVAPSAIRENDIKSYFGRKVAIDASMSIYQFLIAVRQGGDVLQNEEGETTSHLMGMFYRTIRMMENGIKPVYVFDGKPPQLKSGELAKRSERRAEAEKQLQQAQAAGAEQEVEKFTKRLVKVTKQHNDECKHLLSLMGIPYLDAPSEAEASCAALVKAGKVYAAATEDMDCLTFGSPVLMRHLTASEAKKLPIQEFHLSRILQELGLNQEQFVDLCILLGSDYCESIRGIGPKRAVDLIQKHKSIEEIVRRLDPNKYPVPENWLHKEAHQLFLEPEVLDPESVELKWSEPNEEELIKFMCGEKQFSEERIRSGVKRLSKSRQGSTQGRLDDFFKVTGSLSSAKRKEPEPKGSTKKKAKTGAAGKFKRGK

SMILES	IC50 (hEXO1, Isoform1) [µM]	IC50 (hXPG) [µM]	IC50 (hFEN1) [µM]
Cn1cc(Cn2c(=O)c(O)c(C(=O)O)c3sccc32)cn1 [Example 90, 6-hydroxy-4-[(1-methyl-1H-pyrazol-4-yl)methyl]-5-oxo-4,5-dihydrothieno[3,2-b]pyridine-7-carboxylic acid]	2.25 to 10	2.25 to 10	< 0.2
O=C(O)c1c(O)c(=O)n(Cc2cnn(Cc3ccnnc3)c2)c2ccsc12 [Example 132, 6-hydroxy-5-oxo-4-{[1-(pyridazin-4-ylmethyl)-1H-pyrazol-4-yl]methyl}-4,5-dihydrothieno[3,2-b]pyridine-7-carboxylic acid]	2.25 to 10	2.25 to 10	< 0.2
CS(=O)(=O)c1ccc(-n2cc(Cn3c(=O)c(O)c(C(=O)O)c4sccc43)cn2)cc1 [Example 116, 6-hydroxy-4-({1-[4-(methylsulfonyl)phenyl]-1H-pyrazol-4-yl}methyl)-5-oxo-4,5-dihydrothieno[3,2-b]pyridine-7-carboxylic acid]	0.25 to 0.75	0.75 to 2.25	< 0.2
CC(=O)Nc1ccc(-n2cc(Cn3c(=O)c(O)c(C(=O)O)c4sccc43)cn2)cc1 [Example 22, 4-{[1-(4-acetamidophenyl)-1H-pyrazol-4-yl]methyl}-6-hydroxy-5-oxo-4,5-dihydrothieno[3,2-b]pyridine-7-carboxylic acid]	0.25 to 0.75	0.25 to 0.75	< 0.2
O=C(O)c1c(O)c(=O)n(Cc2cnn(-c3cccnc3)c2)c2ccsc12 [Example 87, 6-hydroxy-5-oxo-4-{[1-(pyridin-3-yl)-1H-pyrazol-4-yl]methyl}-4,5-dihydrothieno[3,2-b]pyridine-7-carboxylic acid]	0.25 to 0.75	0.75 to 2.25	< 0.2
O=C(O)c1c(O)c(=O)n(Cc2cnn(-c3ccccc3)c2)c2ccsc12 [Example 84, 6-hydroxy-5-oxo-4-[(1-phenyl-1H-pyrazol-4-yl)methyl]-4,5-dihydrothieno[3,2-b]pyridine-7-carboxylic acid]	0.25 to 0.75	0.25 to 0.75	< 0.2
COc1ccc(Cn2c(=O)c(O)c(C(=O)O)c3sc(C4CC4)cc32)cc1 [Example 30, 2-cyclopropyl-6-hydroxy-4-(4-methoxybenzyl)-5-oxo-4,5-dihydrothieno[3,2-b]pyridine-7-carboxylic acid]	0.25 to 0.75	2.25 to 10	0.75 to 2.25
Cn1cc(Cn2cc(Cn3c(=O)c(O)c(C(=O)O)c4sccc43)cn2)cn1 [Example 143, 6-hydroxy-4-({1-[(1-methyl-1H-pyrazol-4-yl)methyl]-1H-pyrazol-4-yl}methyl)-5-oxo-4,5-dihydrothieno[3,2-b]pyridine-7-carboxylic acid]	2.25 to 10	2.25 to 10	< 0.2
O=C(O)c1c(O)c(=O)n(Cc2nnc(-c3ccccc3)o2)c2ccsc12 [Example 85, 6-hydroxy-5-oxo-4-[(5-phenyl-1,3,4-oxadiazol-2-yl)methyl]-4,5-dihydrothieno[3,2-b]pyridine-7-carboxylic acid]	2.25 to 10	0.75 to 2.25	0.25 to 0.75
CS(=O)(=O)c1ccc(Cn2c(=O)c(O)c(C(=O)O)c3sccc32)cc1 [Example 50, 6-hydroxy-4-(4-(methylsulfonyl)benzyl)-5-oxo-4,5-dihydrothieno[3,2-b]pyridine-7-carboxylic acid]	0.75 to 2.25	2.25 to 10	0.25 to 0.75
O=C(O)c1c(O)c(=O)n(Cc2nc(-c3ccccc3)no2)c2ccsc12 [Example 86, 6-hydroxy-5-oxo-4-[(3-phenyl-1,2,4-oxadiazol-5-yl)methyl]-4,5-dihydrothieno[3,2-b]pyridine-7-carboxylic acid]	0.75 to 2.25	0.75 to 2.25	0.25 to 0.75
CS(=O)(=O)c1cccc(Cn2c(=O)c(O)c(C(=O)O)c3sccc32)c1 [Example 63, 6-hydroxy-4-[3-(methylsulfonyl)benzyl]-5-oxo-4,5-dihydrothieno[3,2-b]pyridine-7-carboxylic acid]	2.25 to 10	2.25 to 10	0.75 to 2.25
COc1ccc(-n2cc(Cn3c(=O)c(O)c(C(=O)O)c4sccc43)cn2)cc1 [Example 113, 6-hydroxy-4-{[1-(4-methoxyphenyl)-1H-pyrazol-4-yl]methyl}-5-oxo-4,5-dihydrothieno[3,2-b]pyridine-7-carboxylic acid]	0.25 to 0.75	0.75 to 2.25	< 0.2
O=C(O)c1c(O)c(=O)n(Cc2cnn(Cc3cn4ncccc4n3)c2)c2ccsc12 [Example 138]	2.25 to 10	2.25 to 10	< 0.2
O=C(O)c1c(O)c(=O)n(Cc2cccc(Br)c2)c2ccsc12 [Example 1, 4-(3-bromobenzyl)-6-hydroxy-5-oxo-4,5-dihydrothieno[3,2-b]pyridine-7-carboxylic acid]	2.25 to 10	2.25 to 10	0.25 to 0.75
O=C(O)c1c(O)c(=O)n(Cc2cnc[nH]2)c2ccsc12 [Example 75, 4-[(1H-imidazol-5-yl)methyl]-6-hydroxy-5-oxo-4,5-dihydrothieno[3,2-b]pyridine-7-carboxylic acid]	2.25 to 10	> 10	0.75 to 2.25
Cc1cc(C#N)ccc1Cn1cc(Cn2c(=O)c(O)c(C(=O)O)c3sccc32)cn1 [Example 133, 4-{[1-(4-cyano-2-methylbenzyl)-1H-pyrazol-4-yl]methyl}-6-hydroxy-5-oxo-4,5-dihydrothieno[3,2-b]pyridine-7-carboxylic acid]	2.25 to 10	0.75 to 2.25	< 0.2
O=C(O)c1c(O)c(=O)n(Cc2cnn(Cc3ccccn3)c2)c2ccsc12 [Example 119, 6-hydroxy-5-oxo-4-{[1-(pyridin-2-ylmethyl)-1H-pyrazol-4-yl]methyl}-4,5-dihydrothieno[3,2-b]pyridine-7-carboxylic acid]	2.25 to 10	> 10	< 0.2
O=C(O)c1c(O)c(=O)n(Cc2cnn(CC(=O)N3CC[C@H](O)C3)c2)c2ccsc12 [Example 154, (S)-6-hydroxy-4-({1-[2-(3-hydroxypyrrolidin-1-yl)-2-oxoethyl]-1H-pyrazol-4-yl}methyl)-5-oxo-4,5-dihydrothieno[3,2-b]pyridine-7-carboxylic acid]	> 10	> 10	0.25 to 0.75
O=C(O)c1c(O)c(=O)n(Cc2cn(-c3ccccc3)nn2)c2ccsc12 [Example 18, 6-hydroxy-5-oxo-4-((1-phenyl-1H-1,2,3-triazol-4-yl)methyl)-4,5-dihydrothieno[3,2-b]pyridine-7-carboxylic acid]	0.25 to 0.75	0.75 to 2.25	0.25 to 0.75
CS(=O)(=O)Nc1ccc(-n2cc(Cn3c(=O)c(O)c(C(=O)O)c4sccc43)cn2)cc1 [Example 117, 6-hydroxy-4-({1-[4-(methylsulfonamido)phenyl]-1H-pyrazol-4-yl}methyl)-5-oxo-4,5-dihydrothieno[3,2-b]pyridine-7-carboxylic acid]	0.25 to 0.75	0.25 to 0.75	< 0.2
Cc1ncc(Cn2c(=O)c(O)c(C(=O)O)c3sccc32)s1 [Example 91, 6-hydroxy-4-[(2-methylthiazol-5-yl)methyl]-5-oxo-4,5-dihydrothieno[3,2-b]pyridine-7-carboxylic acid]	2.25 to 10	2.25 to 10	< 0.2
CN(C(=O)Cn1cc(Cn2c(=O)c(O)c(C(=O)O)c3sccc32)cn1)c1ccccc1 [Example 155]	2.25 to 10	2.25 to 10	< 0.2
O=C(O)c1c(O)c(=O)n(Cc2noc(-c3ccccc3)n2)c2ccsc12 [Example 88, 6-hydroxy-5-oxo-4-[(5-phenyl-1,2,4-oxadiazol-3-yl)methyl]-4,5-dihydrothieno[3,2-b]pyridine-7-carboxylic acid]	0.25 to 0.75	2.25 to 10	0.75 to 2.25
